In BindingDB's records for doi:10.1021/acs.jmedchem.1c01473 (Chapman University School of Pharmacy, 2022):

Target: Small conductance calcium-activated potassium channel protein 2 (Rattus norvegicus, UniProt P70604)
Experiment: Potentiation of rat KCa2.2a expressed in HEK293 cells assessed as increase in calcium response at -90 mV holding potential measured at 1 to 2 days by patch clamp electrophysiology

Chain of Small conductance calcium-activated potassium channel protein 2 (P70604 whole entry): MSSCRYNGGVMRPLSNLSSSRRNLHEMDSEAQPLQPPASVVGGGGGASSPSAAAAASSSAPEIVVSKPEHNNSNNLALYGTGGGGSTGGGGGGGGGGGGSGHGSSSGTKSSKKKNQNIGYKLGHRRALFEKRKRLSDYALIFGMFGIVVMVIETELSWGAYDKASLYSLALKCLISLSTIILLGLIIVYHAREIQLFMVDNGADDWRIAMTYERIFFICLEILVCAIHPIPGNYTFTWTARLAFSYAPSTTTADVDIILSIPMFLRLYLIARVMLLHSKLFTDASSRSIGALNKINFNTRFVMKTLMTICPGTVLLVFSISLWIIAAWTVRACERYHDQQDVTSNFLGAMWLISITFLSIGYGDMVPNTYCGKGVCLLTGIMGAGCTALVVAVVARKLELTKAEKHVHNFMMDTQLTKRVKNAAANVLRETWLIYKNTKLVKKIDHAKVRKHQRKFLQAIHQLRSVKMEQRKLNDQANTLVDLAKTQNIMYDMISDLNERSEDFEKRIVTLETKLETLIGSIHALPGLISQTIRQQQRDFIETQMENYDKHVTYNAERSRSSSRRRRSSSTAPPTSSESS

EC50 [nM]	SMILES
110	Cc1cc(Nc2ccc(F)c(Cl)c2)nc(-n2nc(C)cc2C)n1
91	Cc1cc(Nc2cc(Cl)ccc2F)nc(-n2nc(C)cc2C)n1
